Test results reported in patent US20260138961A1, “MODULATORS OF MITOCHONDRIAL DNA REPLICATION” (Pretzel Therapeutics, Inc., priority 2022, published 2026).

molecular target: T1, POLγA:A467T (Homo sapiens, UniProt P54098, A467T); assay: DNA polymerization assay, POLγA:A467T mutant; assay type: biochemical; conditions: stimulation of polymerase activity, primed M13mp18 ssDNA, 37° C. 2 hours; read-out: A467T AC50
T1 sequence (P54098 1-1239 A467T): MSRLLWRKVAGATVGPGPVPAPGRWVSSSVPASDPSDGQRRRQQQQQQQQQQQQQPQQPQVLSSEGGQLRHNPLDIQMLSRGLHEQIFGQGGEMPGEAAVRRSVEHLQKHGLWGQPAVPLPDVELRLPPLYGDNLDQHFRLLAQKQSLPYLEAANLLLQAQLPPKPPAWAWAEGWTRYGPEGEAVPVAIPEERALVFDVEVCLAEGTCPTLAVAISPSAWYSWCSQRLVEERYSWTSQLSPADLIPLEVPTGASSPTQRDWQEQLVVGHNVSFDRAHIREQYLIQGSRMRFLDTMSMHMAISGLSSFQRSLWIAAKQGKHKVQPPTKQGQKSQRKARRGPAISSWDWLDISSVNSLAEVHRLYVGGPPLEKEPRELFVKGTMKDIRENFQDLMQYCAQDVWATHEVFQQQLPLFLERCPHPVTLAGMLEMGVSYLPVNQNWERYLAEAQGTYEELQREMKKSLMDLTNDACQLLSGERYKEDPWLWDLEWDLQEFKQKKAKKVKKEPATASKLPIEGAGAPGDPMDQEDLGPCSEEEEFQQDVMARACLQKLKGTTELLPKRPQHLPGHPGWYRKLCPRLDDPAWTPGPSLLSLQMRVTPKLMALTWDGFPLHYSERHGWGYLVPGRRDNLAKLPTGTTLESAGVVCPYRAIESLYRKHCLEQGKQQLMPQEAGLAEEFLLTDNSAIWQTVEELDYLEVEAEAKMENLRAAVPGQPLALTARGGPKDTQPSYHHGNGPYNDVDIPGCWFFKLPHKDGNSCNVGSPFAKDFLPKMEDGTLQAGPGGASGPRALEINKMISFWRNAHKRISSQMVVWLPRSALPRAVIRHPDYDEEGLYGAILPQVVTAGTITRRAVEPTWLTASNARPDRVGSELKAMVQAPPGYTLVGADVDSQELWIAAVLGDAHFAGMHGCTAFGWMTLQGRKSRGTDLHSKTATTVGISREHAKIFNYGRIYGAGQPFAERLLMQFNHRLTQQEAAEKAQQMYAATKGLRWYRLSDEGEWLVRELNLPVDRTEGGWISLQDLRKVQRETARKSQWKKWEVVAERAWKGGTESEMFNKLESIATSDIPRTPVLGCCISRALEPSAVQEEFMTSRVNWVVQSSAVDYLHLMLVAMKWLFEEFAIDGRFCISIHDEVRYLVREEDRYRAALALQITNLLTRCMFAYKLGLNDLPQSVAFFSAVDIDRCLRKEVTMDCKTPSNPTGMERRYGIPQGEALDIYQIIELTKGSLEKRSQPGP
T1 sequence (Q9UHN1 1-485 partner): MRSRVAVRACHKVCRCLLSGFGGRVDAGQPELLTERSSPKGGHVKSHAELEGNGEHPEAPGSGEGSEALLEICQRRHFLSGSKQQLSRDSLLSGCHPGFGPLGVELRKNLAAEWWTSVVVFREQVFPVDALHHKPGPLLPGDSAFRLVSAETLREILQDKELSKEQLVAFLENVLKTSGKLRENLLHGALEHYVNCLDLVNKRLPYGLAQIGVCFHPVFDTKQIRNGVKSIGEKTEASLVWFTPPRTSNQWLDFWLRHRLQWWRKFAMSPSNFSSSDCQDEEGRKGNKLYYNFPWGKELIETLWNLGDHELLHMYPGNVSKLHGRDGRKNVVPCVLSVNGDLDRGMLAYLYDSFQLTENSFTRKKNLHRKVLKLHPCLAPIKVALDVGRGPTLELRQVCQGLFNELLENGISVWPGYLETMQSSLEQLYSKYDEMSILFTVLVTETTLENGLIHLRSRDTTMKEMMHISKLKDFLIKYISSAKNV

Q: For `Cc1cc(S(=O)(=O)Nc2csc(C3CCOCC3)n2)c(C)cc1Cl` [Example 167, 4-chloro-2,5-dimethyl-N-(2-(tetrahydro-2H-pyran-4-yl)thiazol-4-yl)benzenesulfonamide], which AC50 is on record?
A: 8 µM

Q: With `Cc1cc(S(=O)(=O)Nc2cn(Cc3ccccc3)cn2)c(C)cc1Cl` [Example 168, N-(1-benzyl-1H-imidazol-4-yl)-4-chloro-2,5-dimethylbenzenesulfonamide] as the compound, how does the AC50 read?
A: > 100 µM

Q: For `Cc1cc(S(=O)(=O)Nc2cn(-c3ccccc3)cn2)c(C)cc1Cl` [Example 169, 4-chloro-2,5-dimethyl-N-(1-phenyl-1H-imidazol-4-yl)benzenesulfonamide], which AC50 is on record?
A: > 100 µM

Q: How did the AC50 turn out when `Cc1cc(S(=O)(=O)Nc2cn(C)c(-c3ccccc3)n2)c(C)cc1Cl` [Example 170, 4-chloro-2,5-dimethyl-N-(1-methyl-2-phenyl-1H-imidazol-4-yl)benzenesulfonamide] was run?
A: > 10 µM

Q: How did the AC50 turn out when `Cc1cc(S(=O)(=O)Nc2cnn(-c3ccccc3)n2)c(C)cc1Cl` [Example 171, 4-chloro-2,5-dimethyl-N-(2-phenyl-2H-1,2,3-triazol-4-yl)benzenesulfonamide] was run?
A: > 10 µM

Q: Which AC50 does the source give for `Cc1cc(S(=O)(=O)Nc2csc(C(=O)N(C)CC(N)=O)n2)c(C)cc1Cl` [Example 172, N-(2-amino-2-oxoethyl)-4-((4-chloro-2,5-dimethylphenyl)sulfonamido)-N-methylthiazole-2-carboxamide] here?
A: > 10 µM

Q: Which AC50 does the source give for `Cc1cc(S(=O)(=O)Nc2csc(-c3ccccn3)n2)c(C)cc1Cl` [Example 173, 4-chloro-2,5-dimethyl-N-(2-(pyridin-2-yl)thiazol-4-yl)benzenesulfonamide] here?
A: 2 µM

Q: `Cc1cc(S(=O)(=O)Nc2csc(C(=O)N3CCC[C@H]3C)n2)c(C)cc1Cl` [Example 174, (R)-4-chloro-2,5-dimethyl-N-(2-(2-methylpyrrolidine-1-carbonyl)thiazol-4-yl)benzenesulfonamide] was tested. Which AC50 did it give?
A: 2 µM

Q: For `Cc1cc(S(=O)(=O)Nc2csc(C(=O)N3CCC[C@@H]3C)n2)c(C)cc1Cl` [Example 175, (S)-4-chloro-2,5-dimethyl-N-(2-(2-methylpyrrolidine-1-carbonyl)thiazol-4-yl)benzenesulfonamide], which AC50 is on record?
A: 3 µM

Q: `Cc1cc(S(=O)(=O)Nc2csc(-c3ccncc3)n2)c(C)cc1Cl` [Example 176, 4-chloro-2,5-dimethyl-N-(2-(pyridin-4-yl)thiazol-4-yl)benzenesulfonamide] was tested. Which AC50 did it give?
A: > 100 µM

Q: With `Cc1cc(S(=O)(=O)Nc2csc(C(=O)N(CC(N)=O)C3CCCC3)n2)c(C)cc1Cl` [Example 177, N-(2-amino-2-oxoethyl)-4-((4-chloro-2,5-dimethylphenyl)sulfonamido)-N-cyclopentylthiazole-2-carboxamide] as the compound, how does the AC50 read?
A: > 100 µM

Q: With `Cc1cc(S(=O)(=O)Nc2csc(-n3cccn3)n2)c(C)cc1Cl` [Example 178, N-(2-(1H-pyrazol-1-yl)thiazol-4-yl)-4-chloro-2,5-dimethylbenzenesulfonamide] as the compound, how does the AC50 read?
A: > 100 µM

Q: For `Cc1cc(S(=O)(=O)Nc2csc(C(=O)N(CC(N)=O)C3CCCCC3)n2)c(C)cc1Cl` [Example 179, N-(2-amino-2-oxoethyl)-4-((4-chloro-2,5-dimethylphenyl)sulfonamido)-N-cyclohexylthiazole-2-carboxamide], which AC50 is on record?
A: > 100 µM

Q: How did the AC50 turn out when `Cc1cc(S(=O)(=O)Nc2nc(-c3ccccc3)n(C)n2)c(C)cc1Cl` [Example 180, 4-chloro-2,5-dimethyl-N-(1-methyl-5-phenyl-1H-1,2,4-triazol-3-yl)benzenesulfonamide] was run?
A: > 10 µM

Q: For `Cc1cc(S(=O)(=O)Nc2csc(-c3ccn(C)n3)n2)c(C)cc1Cl` [Example 181, 4-chloro-2,5-dimethyl-N-(2-(1-methyl-1H-pyrazol-3-yl)thiazol-4-yl)benzenesulfonamide], which AC50 is on record?
A: > 10 µM

Q: With `Cc1cc(S(=O)(=O)Nc2csc(-c3cnn(C)c3)n2)c(C)cc1Cl` [Example 183, 4-chloro-2,5-dimethyl-N-(2-(1-methyl-1H-pyrazol-4-yl)thiazol-4-yl)benzenesulfonamide] as the compound, how does the AC50 read?
A: 6 µM

Q: How did the AC50 turn out when `Cc1cc2cc(NS(=O)(=O)c3cc(C)c(Cl)cc3C)ccc2[nH]1` [Example 184, 4-chloro-2,5-dimethyl-N-(2-methyl-1H-indol-5-yl)benzenesulfonamide] was run?
A: 33 µM
